{"source": "patent US8614253B2", "about": "“IRE-1α inhibitors” (MannKind Corporation, priority 2007, dated 2013)", "key": {"IRE-1α [1]": {"molecular_target": "T1, IRE-1α (Homo sapiens (Human), UniProt O75460)", "test": "Phosphorylated IRE-1α and XBP1-splicing in RPMI8226 cells (Western blot, agarose gel)", "assay_type": "cell-based", "conditions": "24 hour treatment, FIG. 6", "from_the_text": "FIG. 6. […] The numbers indicate the concentration of bortezomib in nM."}, "[2]": {"test_system": "human myeloma RPMI8226 tumor xenografts", "test": "RPMI8226 myeloma tumor xenograft in SCID mice", "assay_type": "in vivo, mouse", "conditions": "0.75 mg/kg IV twice weekly"}, "IRE-1α [3]": {"molecular_target": "T1, IRE-1α", "test": "IRE-1α assay: in vitro cleavage of mini-XBP-1 mRNA stem-loop substrate by GST-IRE-1α", "assay_type": "biochemical", "protocol": "A fusion protein comprising glutathione S transferase (GST) and human IRE-1α (GST-IRE-1α) was obtained from a 500 ml baculovirus-infected insect cell culture and used to measure IRE-1α activity in vitro.\nFive μl of a reaction mixture comprising 1× reaction buffer (5× reaction buffer is 100 mM Hepes pH 7.5, 250 mM KOAc, 2.5 mM MgCl2), 3 mM DTT, and 0.4% polyethylene glycol water were added to each well of 384 well plates. Twenty-five nanoliters of a 1 mM test compound solution were added to test wells. […] Negative control wells contained only reaction mixture and test compound.\nThe plates were again spun at 1200 rpm for 30 seconds.\nThe plates were covered with lids and incubated for one hour at 30° C. The plates were then transferred to an ACQUEST™ microplate reader. Data was analyzed using data analysis software, and the percent activity of IRE-1α was calculated."}, "primary murine B cells": {"test_system": "primary murine B cells", "test": "IgM secretion after LPS stimulation of primary murine B cells", "assay_type": "cell-based, mouse", "protocol": "FIG. 9. Inhibition of IgM secretion after LPS stimulation of primary murine B cells with selected IRE-1α inhibitors. […] However, compounds had little effect when at added after 40 hours of stimulation; only slight inhibition at the highest dose. Methods were performed as previously described by Iwakoshi et al., Nature 4, 321-29, 2003 for B cell stimulation, plasma cell differentiation and IgM secretion. Primary B cells were Isolated from BALB/c splenocytes using mouse CD43 Microbeads (Miltenyi cat# 130-049-801) with 1×10^6 cells per treatment. Purified B cells were stimulated in B Cell Media at a final density of 1×10^6/ml/well in 24-well plates with 20 μg/ml LPS (Sigma cat# L4391). IRE-1α inhibitor compound 17-1 was added at various concentrations (50 μM, 10 μM, 2 μM, 0.4 μM and 0.08 μM) at specified time points (t=0, t=24 hr, t=40 hr, etc.) Cells were incubated for 48 hr at 37° C. At end of the incubation, cells were spun in a plate at 1500 rpm/3 min. Supernatants were collected for quantitation for IgM secretion using a mouse IgM ELISA Kit (Bethyl Labs cat# E90-101). B Cell medium included RPMI+10% FBS supplemented with NEAA, HEPES, NaPyr, PSQ, and β-mercaptoethanol."}, "[4]": {"test_system": "RPMI-8226 multiple myeloma cells", "test": "Proliferation of multiple myeloma cells (CellTiter-Glo)", "assay_type": "cell-based, human", "conditions": "RPMI8226 cells, 24 hours, FIG. 5", "protocol": "FIG. 5. Graph showing inhibition of proliferation of multiple myeloma cells by IRE-1α inhibitor 11-28 (Example 11). RPMI-8226 multiple myeloma cells were seeded at 20,000 cells per well in RPMI culture medium containing 1% FBS and the required antibiotics. The plate was incubated overnight at 37° C., 95% air, 5% CO2. The following day, compound 11-28 or medium alone was added to wells, resulting in a final volume of 100 μl per well. The compound concentration ranged from 100 μM to 0 μM, with compounds diluted by a factor of 4. After addition of compound, the plate was incubated at 37° C., 95% air, 5% CO2 for 24 hours. Cell proliferation was measured using the CellTiter-Glo assay (Promega), following the manufacturer's instructions.\nProliferation assays using myeloma cell lines (U266, RPMI8226 and MM.1s) are used to determine ED50. Compounds are used as single agents and in combination with other chemotherapeutic drugs."}}, "data": [{"compound": "CC(C)C[C@H](NC(=O)[C@H](Cc1ccccc1)NC(=O)c1cnccn1)B(O)O", "note": "[bortezomib, [(1R)-3-methyl-1-[[(2S)-1-oxo-3-phenyl-2-[(pyrazinylcarbonyl)amino]propyl]amino]butyl]boronic acid]", "values": [{"measurement": "levels of phosphorylated IRE-1α and XBP1-splicing", "setting": "IRE-1α [1]", "value": "increases the levels of phosphorylated IRE-1α and XBP1-splicing"}, {"measurement": "tumor growth", "setting": "[2]", "value": "suppression of tumor growth"}]}, {"compound": "COc1cccc(C=O)c1O", "note": "[o-vanillin, 2-hydroxy-3-methoxybenzaldehyde]", "values": [{"measurement": "IC50", "setting": "IRE-1α [3]; values in text", "value": 3000, "unit": "nM"}]}, {"compound": "COc1ccc(Br)c(C=O)c1O", "note": "[6-bromo o-vanillin]", "values": [{"measurement": "IC50", "setting": "IRE-1α [3]; values in text", "value": 30, "unit": "nM"}]}, {"compound": "COc1ccc(Br)c(C=O)c1O", "note": "[drawing 180]", "values": [{"measurement": "IC50", "setting": "IRE-1α [3]; Table 3", "value": 80, "unit": "nM"}]}, {"compound": "COc1cccc(C=O)c1O", "note": "[drawing 230]", "values": [{"measurement": "IC50", "setting": "IRE-1α [3]; Table 3", "value": 2370, "unit": "nM"}]}, {"compound": "COc1cccc(C=O)c1O", "note": "[drawing 238]", "values": [{"measurement": "IC50", "setting": "IRE-1α [3]; Table 3", "value": 5750, "unit": "nM"}]}, {"compound": "CN(C)C(=O)c1ccc(-c2ccc3c(C=O)c(O)ccc3c2)cc1", "note": "[17-1, 4-(5-formyl-6-hydroxynaphthalen-2-yl)-N,N-dimethylbenzamide]", "values": [{"measurement": "IgM secretion", "setting": "primary murine B cells; added after 40 hours of stimulation", "value": "little effect"}, {"measurement": "IgM secretion", "setting": "primary murine B cells; added at beginning of stimulation and again at 24 hours", "value": "blocked IgM secretion at all doses tested down to 100 nM"}]}, {"compound": "COc1cc(-c2cccs2)cc(C=O)c1O", "note": "[11-28]", "values": [{"measurement": "inhibition of proliferation", "setting": "[4]", "value": "inhibits the proliferation of RPMI8226 myeloma cells"}]}]}
